Source: patent US8178135B2, “Aqueous solution of conophylline and/or conophyllidine” (Keio University, priority 2006, dated 2012)

How the values were obtained:
[1] = Concentration dissolved after neutralization with pectin added (partially purified by fractionation); assay type: physicochemical; settings: for concentration in solution: Control: filled up only with distilled water, not neutralized
Method: 10 mg of the dried product obtained in Example 5 was dissolved in 5 ml of 0.1 N hydrochloric acid. This solution was dispensed in 0.5 ml aliquots into test tubes. Then, 10 μl or 100 μl of a 0.25% aqueous solution of pectin (Genue pectin type YM-150-LJ) was added and filled up to a total volume of 2 ml with distilled water. Meanwhile, only distilled water was added to some of the test tubes in a total volume of 2 ml.
(§1) Subsequently, the solution, after being adjusted to pH 6.0 with sodium carbonate aqueous solution, was filled up to a total volume of 2.5 ml and was centrifuged at 5,000×g for 10 min. The supernatant was recovered and the concentrations of conophylline and conophyllidine were measured. Meanwhile, the concentrations of conophylline and conophyllidine in the solutions, which was made by filled up to a total volume of 2.5 ml only with distilled water, were also measured as the control.

[2] = Concentration dissolved after neutralization with pectin or sodium polyacrylate (partially purified by reversed phase column); assay type: physicochemical; settings: for concentration in solution: Control: not neutralized
Method: Crude extract I (250 mg) obtained in Example 1 was dissolved in 5 ml of ethanol. Water was added to this solution in a total volume of 50 ml, which was passed through a glass column packed with about 5 ml of ODS resin (DM1020T, manufactured by Fuji Silysia Chemical Ltd.). After unadsorbed matter was removed by washing the column with 10 ml of distilled water, the adsorbed component was eluted with 10 ml of ethanol. Then, after the solvent was removed by centrifugal concentration, the concentrate was dissolved in 5 ml of 0.1 N hydrochloric acid and the solution was dispensed in 0.5 ml aliquots into test tubes. Then, 10 μl, 100 μl, or 1000 μl of a 0.2% aqueous solution of pectin or 0.2% aqueous solution of sodium polyacrylate was added to the aliquots. The solutions were treated in the same way as in Example 11 and the concentrations of conophylline and conophyllidine in the supernatants were measured.

[3] = Concentration dissolved after neutralization with pectin or sodium polyacrylate (ethanol crude extract); assay type: physicochemical; settings: for concentration in solution: Control: filled up only with distilled water, not neutralized
Method: Crude extract (250 mg) obtained in Example 1 was dissolved in 5 ml of 0.1 N hydrochloric acid. Then, after insoluble matter was removed by centrifugation (1,500×g, 5 min), the solution was dispensed in 0.5 ml aliquots into test tubes. Then, 10 μl or 100 μl of a 0.2% aqueous solution of pectin (Genue pectin type YM-150-LJ) or 0.2% aqueous solution of sodium polyacrylate (degrees of polymerization=30,000 to 40,000, manufactured by Wako Pure Chemical Industries, Ltd.) was added and filled up to a total volume of 2 ml with distilled water. Meanwhile, only distilled water was added to some of the test tubes in a total volume of […] (without an additive).
as §1, with “volume of 2 ml and” for “volume of 2.5 ml and”

[4] = Solubility in distilled water or 1% SDS; assay type: physicochemical
Method: 10 mg of weighed Crude extract I obtained in Example 1 was added to 1 ml of distilled water or 1 ml of 1% sodium dodecyl sulfate (SDS) aqueous solution and was stirred vigorously. The solution was centrifuged at 5,000×g for 2 min and the concentrations of conophylline and conophyllidine in the supernatant were measured.

[5] = Storing stability of water-soluble composition extracted with citric acid; assay type: physicochemical; settings: dried composition
Method: 0.1 M citric acid was added to the pulverized product of the dried leaves obtained by the same method as in Example 2, and stirred at 60° C. After insoluble matter was filtered off, the solution was neutralized to pH 6.0 with 0.1 N sodium hydroxide, dispensed in 1 ml aliquots into test tubes, and concentrated to dryness by centrifugation.
First, 1 ml of 50% ethanol was added to one of the test tubes to dissolve solid content. The solution was filtered through a 0.2 μm membrane filter, and then conophylline and conophyllidine were analyzed by HPLC.
Next, the remaining test tubes were divided into five groups, each of which being stored at −30° C. (shielded from light), 4° C. (shielded from light), 4° C. (not shielded from light), 30° C. (shielded from light), and 50° C. (shielded from light). After a lapse of a certain period of time, the composition was dissolved by addition of 50% ethanol, filtered, and analyzed by HPLC.

[6] = Crude extract II absorption test in GK rats; assay type: in vivo, rat; settings: Crude extract II 4.3 or 13 mg/kg, 1.5-24 h
Method: Sixteen 10-week old GK rats were divided into four groups (n=4 per group). Two groups (the fasted groups) were fasted for 16 hours, and the remaining two groups (the fed groups) were allowed ad libitum access to chow and water. The fed groups received Crude extract II (containing Tween 80) at 4.3 mg/kg or 13 mg/kg. Blood was taken at 1.5, 3, 6, 12, and 24 hours post administration and plasma conophylline concentration was measured. Likewise, the fasted groups also received Crude extract II and plasma conophylline concentration was measured.

[7] = test system: model animals of neonatal diabetes; settings: intraperitoneally administered; cited from earlier work
[8] = pH 6.0, Sodium polyacrylate 10 μg/ml
[9] = pH 6.0, Sodium polyacrylate 100 μg/ml

SMILES	concentration in solution [1]	concentration in supernatant after neutralization ([1]; pH 6.0, Pectin 10 μg/ml)	concentration in supernatant after neutralization ([1]; pH 6.0, Pectin 100 μg/ml)	concentration in supernatant after neutralization ([1]; pH 6.0, pectin 0 μg/ml)	concentration in solution [2]	concentration in supernatant after neutralization ([2]; pH 6.0, Pectin 10 μg/ml)	concentration in supernatant after neutralization ([2]; pH 6.0, Pectin 100 μg/ml)	concentration in supernatant after neutralization ([2]; pH 6.0, Pectin 1000 μg/ml)	concentration in supernatant after neutralization [2, 8]	concentration in supernatant after neutralization [2, 9]	concentration in supernatant after neutralization ([2]; pH 6.0, additive None)	concentration in solution [3]	concentration in supernatant after neutralization ([3]; pH 6.0, Pectin 10 μg/ml)	concentration in supernatant after neutralization ([3]; pH 6.0, Pectin 100 μg/ml)	concentration in supernatant after neutralization [3, 8]	concentration in supernatant after neutralization [3, 9]	concentration in supernatant after neutralization ([3]; pH 6.0, additive None)	further results
CC[C@@]12C=CCN3CC[C@]4(C(=C(C(=O)OC)C1)Nc1cc5c(cc14)[C@H]1[C@@H](O5)[C@H](O)[C@]4(CC)CC(C(=O)OC)=C5Nc6c(cc(O)c(OC)c6OC)[C@@]56CCN1[C@H]46)[C@H]32 (stereo in doubt) [Conophyllidine, conophyllidine]	4600 ng/mL	2200 ng/mL	3000 ng/mL	1500 ng/mL	16080 ng/mL	130 ng/mL	570 ng/mL	2740 ng/mL	170 ng/mL	6990 ng/mL	160 ng/mL	11830 ng/mL	2420 ng/mL	5190 ng/mL	2500 ng/mL	8450 ng/mL	3270 ng/mL	concentration in supernatant ([4]; 10 mg Crude extract I in 1 ml 1% SDS): 2970 ng/mL; concentration in supernatant ([4]; 10 mg Crude extract I in 1 ml Distilled water): 680 ng/mL; storing stability ([5]; 4° C., not shielded from light): gradually decreased (degraded); storing stability ([5]; −30, 4, 30, 50° C., shielded from light): very stable
CC[C@@]12CC(C(=O)OC)=C3Nc4cc5c(cc4[C@@]34CCN(C[C@H]3O[C@H]31)[C@@H]24)[C@@H]1[C@H](O5)[C@@H](O)[C@@]2(CC)CC(C(=O)OC)=C3Nc4c(cc(O)c(OC)c4OC)[C@@]34CCN1[C@@H]24 [Conophylline, conophylline]	3700 ng/mL	2100 ng/mL	2600 ng/mL	1500 ng/mL	11280 ng/mL	270 ng/mL	550 ng/mL	2590 ng/mL	240 ng/mL	5150 ng/mL	190 ng/mL	8420 ng/mL	1740 ng/mL	3830 ng/mL	1870 ng/mL	4850 ng/mL	2520 ng/mL	blood (plasma) conophylline concentration, fasted vs fed groups [6]: slightly higher in the fasted groups, but no significant difference; blood glucose levels [7]: significantly suppressing increased blood glucose levels
